Reference: patent US5322842A, “Tricyclic benzodiazepine derivates, their preparation, and pharmaceutical compositions containing them” (Fujisawa Pharmaceutical Co., Ltd., priority 1990, dated 1994)

System: CCK receptor (rat pancreatic membranes)
Assay: [125I] CCK-8 binding to rat pancreatic membranes
Details: test compound 1×10^-8 M, 50 pM 125I-CCK-8, 30 min, 37° C.
Description: [^125 I ] CCK-8 binding to rat pancreatic membranes
Rats were killed by a blow on the head and bled to death. Whole pancreas (about 0.7 g) was removed, minced in a small quantity of 50 mM Tris-HCl buffer (pH 7.4), and homogenized in 30 vol: of the buffer by a polytron homogenizer. The homogenate was centrifuged at 30000×g (16000 rpm) for 10 min. The pellet was then resuspended in the same buffer by a glass-teflon homogenizer and recentrifuged at 30000×g for 10 min. This procedure (washings) was repeated twice more. The final pellet (membrane) was suspended in incubation medium (see below) so as to obtain a final protein concentration of 2 mg/ml. All manipulations were done at 0°-4° C.
(ii) Receptor binding assay
The composition of incubation medium was as follows: 50 mM Tris-HCl (pH 7.4), 5 mM MgCl2, 5 mM dithiothreitol (DTT), 0.14 mg/ml bacitracin, and 0.2% bovine serum albumin (BSA). Freshly prepared membranes (200 μg protein) were incubated for 30 min under shaking at 37° C. in plastic tubes in 500 μl of incubation medium with 50 pM ^125 I-CCK-8 in the presence or absence of test compound (1×10^-8 M). To determine the non-specific binding, CCK-8 at 1 μM was added. […] After washing the filter with 50 mM Tris-HCl (pH 7.4) buffer containing 0.1% BSA, the radioactivity of the filter was counted. […] The effect of test compound was expressed as % inhibition of specific ^125 I-CCK-8 binding.

Question: How did the “Inhibition (%) of specific 125I-CCK-8 binding” value turn out when `CN1CCN2C(=O)C(NC(=O)c3cc4ccccc4[nH]3)N=C(c3ccccc3F)c3cccc1c32` (racemic) [Example 2, (6RS)-1-methyl-5-oxo-6-(2-indolylcarbonylamino)-8-(2-fluorophenyl)-2,3,5,6-tetrahydro-1H-[1,4]diazepino-[1,7,6-de]quinoxaline] was run?
Answer: 95.7%
